Measurements published in patent publication US11459313B2, “Aziridinyl and amino dimeric naphthoquinone compounds and use for acute myeloid leukemia” (University of Maryland, Baltimore, priority 2016, dated 2022).
Entries after “also recorded” stand apart in the source; their conditions may differ. Like-named read-outs stand apart in the source and are kept apart here.

Experiments:
THP-1 cells [1] = assay: WST-1 cell proliferation assay, THP-1; assay type: cell-based; settings: Homo sapiens, THP-1
Protocol: Cell lines were seeded into 96-well plates the afternoon prior to treatment. Approximately 18 hours later, bis and mono-aziridine dimeric naphthoquinone compounds were semi-serially diluted in dimethyl sulfoxide (DMSO) and then growth medium, and added to cells. Plates were incubated for 72 hours prior to addition of WST-1 (Promega®). Plates were read after 4 additional hours of incubation at 37° C. using a Bio-Tek Synergy® HT plate reader (Bio-Tek®). Data were analyzed and graphed using GraphPad Prism® Software (Graph Pad®).
Primary AML cells from patients and cell lines were seeded into 96-well plates the afternoon prior to treatment. Eighteen hours later, amino-dimeric naphthoquinone Compounds 106, 101, and 114 were semi-serially diluted in dimethyl sulfoxide (DMSO) and then growth medium, and added to the cells. In order to quantitate proliferation of metabolically active cells, plates were incubated for 72 hours for cell lines and 48 hours for primary AML cells prior to addition of water-soluble tetrazolium (WST-1) (Clontech®). Plates were read after four additional hours of incubation at 37° C. using a Bio-Tek Synergy® HT plate reader (Bio-Tele®). Data were analyzed and graphed using GraphPad Prism® Software (GraphPad®). IC50 was defined as the concentration that decreases viable cell numbers by 50%. IC50 values were calculated as mean±standard deviation from at least two independent experiments. If availability of primary blasts was limited, the IC50 was obtained from a single experiment.

THP-1 cells [2] = assay: Clonogenic assay, THP-1; assay type: cell-based, human; settings: 24 hours exposure, then methylcellulose; p<0.05 at 1, 10 and 100 μM
Protocol: MOLM-14 and THP-1 were treated with either DMSO control or mono-aziridine dimeric naphthoquinone or bis-aziridinyl dimeric naphthoquinone compounds at concentrations of 0.1, 1, 10 and 100 μM (micromolar) for 24 hours. The cells then were washed with growth medium and resuspended in growth medium and methylcellulose with or without DMSO or the treatment compounds. After 7 or 13 days (MOLM-14 or THP-1, respectively), treatment was terminated by addition of 1.0 mg/mL, iodonitrotetrazolium chloride (INT; Sigma Aldrich®) and read 24 hours later with an automated colony counter (Symbiosis®). Data were analyzed and graphed using GraphPad Prism® software.
Next, the effect of bis-aziridinyl-dimeric naphthoquinone Compound 101 on AML cell survival and viability. […] For colony formation assays, cell lines were treated with the indicated doses of aziridinyl dimeric naphthoquinone Compound 101 for 24 hours, and subsequently washed and plated in methylcellulose to observe clonogenic potential after 7-10 days. See above for additional comments on the methods.
Clonogenic inhibition was […] when bis-aziridinyl dimeric naphthoquinone was removed from cells after 24 hours of treatment. The bis-aziridinyl dimeric naphthoquinone was able to reduce clonogenicity with just a 24-hour exposure prior to plating.

MOLM-14 cells [3] = assay: Cell survival assay (trypan blue exclusion), MOLM-14; assay type: cell-based, human; settings: 72 hours; at 0.1, 1, 10 and 100 μM
Protocol: MOLM-.14 and THP-1 cells were seeded in 96-well plates and treated with DMSO, mono- and bis-aziridinyl dimeric naphthoquinone compounds, or dimethylamine dimeric naphthoquinone Compound 114 as previously described. Cells were incubated for 72 hours, and then counted using trypan blue exclusion on the Countess® automated cell counter (Life Technologies®). Cell counts were performed in duplicates, and the averages were graphed using GraphPad Prism® software (GraphPad®).
Cell survival was determined using trypan blue exclusion, in which cells are plated and the following day treated similarly to the proliferation assay. The bis-aziridinyl dimeric naphthoquinone Compound 101 was effective in decreasing cell number at increasing concentrations of compound in MOLM-14 and THP1 cells.

MOLM-14 cells [4] = assay: Cellular reactive oxygen species (H2DCFA), MOLM-14; assay type: cell-based, human
Protocol: (§1) MOLM-14 and THP-1 cells in logarithmic growth phase were centrifuged and resuspended in PBS at one million cells per milliliter (mL) of medium. Cells were preloaded with 2′,7′-dichlorodihydrofluorescein diacetate (H2DCFA, Life Technologies®) at a final concentration of 2 μM and incubated at 37° C. in the dark for 25 minutes. Cells were centrifuged and resuspended at one million per mL in phenol red-free RPMI plus 10% FBS and incubated at 37° C. in the dark for 25 minutes. Treatments were prepared at 2× concentrations of […] in complete phenol red-free RPMI and added to each well to yield 1× concentrations of 20, 10, 2, or 0.5 μM. Cells were incubated in the dark at 37° C. and measurement of ROS was performed with a Bio-tek® Synergy HT plate reader at various time points post treatment.
(§2) In order to elucidate the mechanisms by which the bis-aziridinyl naphthoquinone exerts anti-leukemic activity, the amount of reactive oxygen species (ROS) that cells produced upon treatment with Compound 101 was examined. MOLM-14 and THP-1 cells were loaded with the ROS dye H2DCFA and subsequently plated into 96-well plates. Cells were treated with vehicle (negative control), Compound 101 in varying concentrations, or hydrogen peroxide (positive control), and observed over a period of 2-6 hours. The relative fluorescence units (RFU) were read at various time points. […]

THP-1 cells [5] = assay: Cellular reactive oxygen species (H2DCFA), THP-1; assay type: cell-based, human
Protocol: as §1, §2

MOLM-14 cells [6] = assay: Gamma-H2Ax immunofluorescence assay, MOLM-14; assay type: cell-based, human; settings: 24 hours; 200 nM, 1.0 and 2.0 μM
Protocol: MOLM-14 cells were seeded in the afternoon and the following morning treated with DMSO, or aziridinyl-dimeric naphthoquinone Compound 101 at 1×, 5×; or 10× IC50 concentrations. Cells were harvested at 24 and 48 hours. Briefly, cells were washed twice with PBS, counted, and resuspended into PBS/2% FBS. Approximately 150,000 cells were pelleted on Superfrost® microslides (Thermo Fisher Scientific®) using a cytospin machine (Thermo Fisher Scientific®) for 10 minutes at 800 RPM. Slides were air-dried for 5 minutes, then fixed in 4% paraformaldehyde for 15 minutes, washed with PBS 3 times, each time for 5 minutes and permeabilized with permeabilization buffer (50 mM NaCl, 3 mM MgCl2, 10 mM HEPES, 200 mM sucrose, and 0.5% Triton-X-100) for 10 minutes. After overnight blocking in PBS/10% FBS, slides were washed 3 times, each time for 5 minutes with wash buffer (PBS, 1% BSA, and 0.1% Triton-X-100), stained with 1:100 anti-phosphohistone H2Ax antibody (Millipore®), washed with wash buffer again 3 times, each time for 5 minutes, and stained with 1:200 goat anti-mouse IgG, Dylight 594® (Thermo Scientific®), washed 3 times, each time for 5 minutes with wash buffer, and mounted with Vectashield® mounting medium with 4′,6-diamidino-2-phenylindole (DAPI, Vector Labs®). Slides sat overnight and were sealed the following day with clear nail polish. […]

With `O=C1C(C2=C(N3CC3)C(=O)c3ccccc3C2=O)=C(N2CC2)C(=O)c2ccccc21` [Compound 101, 3,3′-di(aziridin-1-yl)-[2,2′-binaphthalene]-1,1 4,4′-tetrone] the IC50 (THP-1 cells [1]; Example 5, read-out: IC50 THP-1) was 650 ± 300 nM, the IC50 (THP-1 cells [1]; Table 5, read-out: IC50 THP1 (n)) was 1600 ± 1000 nM and the “clonogenic activity (colony formation), THP-1” value (THP-1 cells [2]) was “marked reduction in clonogenic activity; also recorded: inhibits clonogenicity”. The “viable cells, MOLM-14” value (MOLM-14 cells [3]) was “statistically significant (p<0.05) reduction in viable cells”, the “time to production of ROS, MOLM-14” value (MOLM-14 cells [4]) was no more than 2 h and the “ROS production, MOLM-14” value (MOLM-14 cells [4]; 0.5-20 μM, 2-6 hours) was “dose-dependent increase in ROS production”. The “time to production of ROS, THP-1” value (THP-1 cells [5]) was no more than 2 h, the “ROS production, THP-1” value (THP-1 cells [5]; 0.5-20 μM, 2-6 hours) was “dose-dependent increase in ROS production” and the “γ-H2Ax phosphorylation (double-stranded DNA breaks), MOLM-14” value (MOLM-14 cells [6]) was “substantial γ-H2Ax phosphorylation”.
